assay: In vitro inhibition of EGF-stimulated DNA synthesis of ER 22 cells by following the incorporation of methyl-[3H]thymidine.

Row | Compound | IC50
1 | CC(COC(=O)c1ccc(-c2cc(O)cc(C(C)(C)C)c2)cc1)CC(C)(C)C (stereo not given) | > 5 µM
2 | COC(=O)c1ccc(-c2ccc(C(C)(C)C)cc2O)cc1 | > 5 µM
3 | O=C(O)c1ccc(-c2cc(O)cc(-c3ccccc3)c2)cc1 | 10 µM
4 | CC(COC(=O)c1ccc(-c2cc(O)cc(-c3ccccc3)c2)cc1)CC(C)(C)C (stereo not given) | > 5 µM
5 | COCOc1c(-c2ccccc2)cccc1-c1ccc(C(=O)OCC(C)CC(C)(C)C)cc1 (stereo not given) | > 10 µM
6 | CC(COC(=O)c1ccc(-c2cccc(-c3ccccc3)c2O)cc1)CC(C)(C)C (stereo not given) | > 10 µM
7 | COC(=O)c1ccc(-c2cccc(-c3ccccc3)c2O)cc1 [2'-Hydroxy-[1,1';3',1'']terphenyl-4-carboxylic acid methyl ester] | > 5 µM
8 | CC(C)(C)c1cc(O)cc(-c2ccc(C(=O)O)cc2)c1 [3'-tert-Butyl-5'-hydroxy-biphenyl-4-carboxylic acid] | > 20 µM
9 | COCOc1cc(C(C)(C)C)ccc1-c1ccc(C(=O)OC)cc1 [4'-tert-Butyl-2'-methoxymethoxy-biphenyl-4-carboxylic acid methyl ester] | 10 µM

Further lines, results first:

Row | IC50 | Compound
10 | 8 µM | O=C(NCc1ccccc1)c1ccc(-c2cc(O)cc(-c3ccccc3)c2)cc1
11 | 10 µM | COCOc1cc(-c2ccccc2)ccc1-c1ccc(C(=O)O)cc1
12 | > 5 µM | COCOc1cc(-c2ccccc2)ccc1-c1ccc(C(=O)OC)cc1
13 | 1.4 µM | O=C(NCc1ccccc1)c1ccc(-c2ccc(-c3ccccc3)cc2O)cc1 [2'-Hydroxy-[1,1';4',1'']terphenyl-4-carboxylic acid benzylamide]
14 | 1.1 µM | COCOc1cc(-c2ccccc2)ccc1-c1ccc(C(=O)NCc2ccccc2)cc1 [2'-Methoxymethoxy-[1,1';4',1'']terphenyl-4-carboxylic acid benzylamide]
15 | 5.4 µM | CC(C)(C)c1cc(O)cc(-c2ccc(C(=O)NCc3ccccc3)cc2)c1 [3'-tert-Butyl-5'-hydroxy-biphenyl-4-carboxylic acid benzylamide]

From BindingDB's records for doi:10.1021/jm00023a009 (University of Paris, 1995)
